From patent US20030204875A1, “Novel agrobacterium-mediated plant transformation method” (priority 1999, published 2003)
Like-named read-outs stand apart in the source and are kept apart here.

Columns and labels:
[1] = test system: Agrobacterium (strain ABI); assay type: cell-based; design: key: “No Growth” indicates there was not an increase in cell density indicating bacteriocidal or bacteriostatic property of the chemical; “Slow Growth” indicates that a slight increase in cell density was noticed and a higher level may be lethal; “Growth” indicates no effect on bacterial growth at the concentration used relative to growth in control medium; conditions: twenty-four hours
Description: Each of the chemicals listed in Table 26 was resuspended in MS-BMS media and added (final concentration 50 μM) to a 50 ml overnight culture of Agrobacterium (strain ABI). Twenty-four hours after inoculation the effect of the chemicals on the growth of Agrobacterium was recorded. A known bacteriocidal compound, Carbenicillin at a final concentration of 50 mg/L and AgNO3 (20 μM) were used as controls.

[2] = test system: immature embryos of genotype (H99×Pa 91)A188; assay: Transformation efficiency of corn with different growth inhibiting agents during co-culture; assay type: cell-based; conditions: 50 mg/L in co-culture medium, three days; OD 4.0
Description: b) Biological assay (leaf bleach assay). Leaf samples (a leaf punch) from approximately 2-week-old seedlings were placed in wells of 24-well cell culture clusters (Costar Corporation, Cambridge, Mass.). Each well was filled with 0.5 ml aqueous solution composed of 300 mg/L paromomycin (Sigma) and 100 mg/L Benlate (a fungicide made by Du Pont), 100 mg/IL Benlate alone was used as a control. Three leaf samples from the same leaf of each plant were placed in two wells containing paromomycin plus Benlate and one well containing Benlate alone, respectively. Leaf samples from non-transformed plants were used as negative controls. The samples were vacuum-infiltrated in a dessicator using an in-house vacuum system for 5 min and then the clusters were sealed tightly with parafilm before being placed under light (140 μMol m-2s-1). The results were determined after 60 hours.
Immature embryos of genotype (H99×Pa 91)A188 were isolated as described. […] The Agrobacterium strain was pre-induced as described. The inoculation was performed using a concentration of A660 OD 4.0 for 15 minutes as described. Post inoculation, Agrobacterium suspension was removed and embryos were placed on different semi-solid co-culture media supplemented with various bacteriocidal compounds. All the tissues were incubated for three days in the dark. The transformation protocol followed was as described previously (corn IE transformation) except that the 1st selection with 50 mg/L Paromomycin was replaced with 25 mg/L Paromomycin for 2 weeks and 50 mg/L Paromomycin for 2 additional weeks. Transformation efficiency was calculated based on the number of embryos producing nptII positive plants as determined by a leaf bleach assay as described earlier. Three weeks after the transformation, the quality and growth characteristics of IE-derived callus co-cultured in the presence of different growth inhibiting agents.

[3] = final concentration 50 μM in MS-BMS media

`CC1(C)S[C@@H]2[C@H](NC(=O)C(C(=O)O)c3ccccc3)C(=O)N2[C@H]1C(=O)O` (some centres unmarked) [Carbenicillin, reference compound] was tested, and the “Effect (on growth of Agrobacterium)” value ([1]; control, final concentration 50 mg/L) was “No Growth” and the “% Transformation” value [2] was 14.3%.
With `[Na+].[Na+].[O]=[Mo](=[O])([O-])[O-]` [Sodium Molybdate] the “Effect (on growth of Agrobacterium)” value [1, 3] was “Growth”.
For `[Cl][Cd][Cl]` [Cadmium Chloride], the “Effect (on growth of Agrobacterium)” value [1, 3] was “Slow Growth”.
Manganese Chloride was tested, and the “Effect (on growth of Agrobacterium)” value [1, 3] was “Slow Growth”.
In the case of `[Na+].[Na+].[O]=[W](=[O])([O-])[O-]` [Sodium Tungstate], the “Effect (on growth of Agrobacterium)” value [1, 3] is reported as “Growth”.
With `[Cl][Al]([Cl])[Cl]` [Aluminum Chloride] the “Effect (on growth of Agrobacterium)” value [1, 3] was “Growth”.
For `[Cl][Ni][Cl]` [Nickel Chloride], the “Effect (on growth of Agrobacterium)” value [1, 3] was “Growth”.
With `[Cl-].[Cl-].[Zn+2]` [Zinc Chloride] the “Effect (on growth of Agrobacterium)” value [1, 3] was “Growth”.
In the case of `[Cl][Cr][Cl]` [Chromium (II) Chloride], the “Effect (on growth of Agrobacterium)” value [1, 3] is reported as “Growth”.
With Lead Nitrate the “Effect (on growth of Agrobacterium)” value [1, 3] was “Growth”.
